Assay results as given in ChEMBL document CHEMBL1149887, “Enantiospecific synthesis and cytotoxicity of 7-(4-methoxyphenyl)-6-phenyl-2,3,8,8a-tetrahydroindolizin-5(1H)-one enantiomers” (Bioorg Med Chem, 2008).

Tested on: HCT-116
Experiment: Cytotoxicity against human HCT116 cells
Format: functional, cell-based

Structure (SMILES) | IC50
COc1ccc(C2=C(c3ccccc3)C(=O)N3CCC[C@H]3C2)cc1 | 390 nM
COc1ccc(C2=C(c3ccccc3)C(=O)N3CCC[C@@H]3C2)cc1 | 200 nM
COc1cc2c3c(c4cc(OC)c(OC)cc4c2cc1OC)CN1CCCC1C3 (racemic) [(+/-)-TYLOPHORINE] | 670 nM
